Source: ChEMBL document CHEMBL5325426, “Structure-based discovery of potent USP28 inhibitors derived from Vismodegib” (Eur J Med Chem, 2023)

Legend:
[1] = target: T1, Ubiquitin carboxyl-terminal hydrolase 28 (Homo sapiens, UniProt Q96RU2); assay: Inhibition of USP28 (149 to 703 residues) (unknown origin) expressed in Escherichia coli BL21 (DE3) using Ub-AMC as substrate by fluorescence based analysis
T1 sequence (Q96RU2 whole entry): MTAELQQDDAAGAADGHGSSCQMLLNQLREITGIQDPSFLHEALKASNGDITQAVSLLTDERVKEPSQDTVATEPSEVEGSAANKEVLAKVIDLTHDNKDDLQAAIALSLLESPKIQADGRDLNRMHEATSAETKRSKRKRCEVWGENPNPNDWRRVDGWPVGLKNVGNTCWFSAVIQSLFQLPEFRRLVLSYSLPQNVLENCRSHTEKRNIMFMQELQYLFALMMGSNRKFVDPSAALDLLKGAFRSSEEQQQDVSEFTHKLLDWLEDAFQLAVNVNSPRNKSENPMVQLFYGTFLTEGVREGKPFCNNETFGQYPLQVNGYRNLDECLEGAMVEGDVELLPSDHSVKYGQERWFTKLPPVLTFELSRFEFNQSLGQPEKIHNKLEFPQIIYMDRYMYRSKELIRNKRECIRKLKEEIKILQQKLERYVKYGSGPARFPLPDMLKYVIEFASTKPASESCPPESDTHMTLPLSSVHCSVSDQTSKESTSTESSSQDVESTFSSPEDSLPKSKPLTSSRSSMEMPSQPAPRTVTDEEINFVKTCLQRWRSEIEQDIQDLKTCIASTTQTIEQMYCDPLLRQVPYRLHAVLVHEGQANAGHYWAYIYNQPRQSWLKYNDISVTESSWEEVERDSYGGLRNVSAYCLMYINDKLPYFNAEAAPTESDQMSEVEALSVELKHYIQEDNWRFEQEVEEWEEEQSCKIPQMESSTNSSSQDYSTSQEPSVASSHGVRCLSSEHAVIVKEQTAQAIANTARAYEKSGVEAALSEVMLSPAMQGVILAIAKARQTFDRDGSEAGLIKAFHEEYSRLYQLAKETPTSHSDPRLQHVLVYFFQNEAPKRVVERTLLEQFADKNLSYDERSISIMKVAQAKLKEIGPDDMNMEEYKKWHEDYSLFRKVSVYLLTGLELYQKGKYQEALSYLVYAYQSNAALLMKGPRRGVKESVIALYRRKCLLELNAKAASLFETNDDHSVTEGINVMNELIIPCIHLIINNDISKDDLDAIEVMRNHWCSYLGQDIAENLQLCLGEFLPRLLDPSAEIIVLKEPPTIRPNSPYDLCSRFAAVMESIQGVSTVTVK

[2] = tested on: HCT-116; assay: Antiproliferative activity against human HCT-116 cells assessed as cell growth inhibition incubated for 3 days by SRB assay; type: functional, cell-based; conditions: HCT-116, 72 h
[3] = tested on: LS174T; assay: Antiproliferative activity against human LS174T cells assessed as cell growth inhibition incubated for 3 days by SRB assay; type: functional, cell-based; conditions: 72 h
[4] = tested on: Calu-1; assay: Antiproliferative activity against human Calu-1 cells assessed as cell growth inhibition incubated for 3 days by SRB assay; type: functional, cell-based; conditions: Calu-1, 72 h
[5] = tested on: NCI-H226; assay: Antiproliferative activity against human NCI-H226 cells assessed as cell growth inhibition incubated for 3 days by SRB assay; type: functional, cell-based; conditions: NCI-H226, 72 h

IC50 [1] | Structure (SMILES) | also measured
150 nM | CS(=O)(=O)c1ccc(C(=O)Nc2ccc(Cl)c(-c3cccc(CN)c3)c2)c(Cl)c1 | –
5680 nM | CS(=O)(=O)c1ccc(C(=O)Nc2ccc(Cl)c(-c3ccc(N)cc3)c2)c(Cl)c1 | –
360 nM | CS(=O)(=O)c1ccc(C(=O)Nc2ccc(Cl)c(-c3ccc(CN)cc3)c2)c(Cl)c1 | –
8580 nM | CS(=O)(=O)c1ccc(C(=O)Nc2ccc(Cl)c(-c3ccccc3N)c2)c(Cl)c1 | –
11000 nM | CS(=O)(=O)c1ccc(C(=O)Nc2ccc(Cl)c(-c3cccc(N)c3)c2)c(Cl)c1 | –
2940 nM | COc1ccc(-c2cc(NC(=O)c3ccc(S(C)(=O)=O)cc3Cl)ccc2Cl)cc1 | –

Further lines, the molecule ahead of its results:

Structure (SMILES) | IC50 [1] | also measured
Cc1ccc2c(N)c(C(=O)N[C@H]3CCc4cc(N5CC6CCC(C5)N6)ccc4C3)sc2n1 | 110 nM | IC50 [2]: 190 nM; IC50 [3]: 70 nM; IC50 [4]: 320 nM; IC50 [5]: 150 nM
CN(C)c1ccc(-c2cc(NC(=O)c3ccc(S(C)(=O)=O)cc3Cl)ccc2Cl)cc1 | 2820 nM | –
CS(=O)(=O)c1ccc(C(=O)Nc2ccc(Cl)c(-c3ccc(N4CCNCC4)cc3)c2)c(Cl)c1 | 4240 nM | –
CS(=O)(=O)c1ccc(C(=O)Nc2ccc(Cl)c(-c3ccc(CN)cn3)c2)c(Cl)c1 | 2130 nM | –
CS(=O)(=O)c1ccc(C(=O)Nc2cc(Cl)cc(-c3ccc(CN)cc3)c2)c(Cl)c1 | 1130 nM | –
